Data on one molecule can be found in article PMC5281649 (European Journal of Nuclear Medicine and Molecular Imaging, 2016).

One series concerns MAO-A. Also on record: method as in doi:10.1016/j.jalz.2013.05.1757. The settings on record: MAO-B over MAO-A; cited from earlier work.
Details of series [1]: method as in PMID 22451094. The settings on record: elderly subjects; steady-state conditions; plasma; cited from earlier work.
Series [2] is described as follows: Pre-PET sembragiline plasma concentration at steady state (LC-MS/MS). In kind it is in vivo, human.
The target in the next series is T1, brain MAO-B enzyme (Homo sapiens, UniProt P27338).
T1 sequence (P27338 1-520): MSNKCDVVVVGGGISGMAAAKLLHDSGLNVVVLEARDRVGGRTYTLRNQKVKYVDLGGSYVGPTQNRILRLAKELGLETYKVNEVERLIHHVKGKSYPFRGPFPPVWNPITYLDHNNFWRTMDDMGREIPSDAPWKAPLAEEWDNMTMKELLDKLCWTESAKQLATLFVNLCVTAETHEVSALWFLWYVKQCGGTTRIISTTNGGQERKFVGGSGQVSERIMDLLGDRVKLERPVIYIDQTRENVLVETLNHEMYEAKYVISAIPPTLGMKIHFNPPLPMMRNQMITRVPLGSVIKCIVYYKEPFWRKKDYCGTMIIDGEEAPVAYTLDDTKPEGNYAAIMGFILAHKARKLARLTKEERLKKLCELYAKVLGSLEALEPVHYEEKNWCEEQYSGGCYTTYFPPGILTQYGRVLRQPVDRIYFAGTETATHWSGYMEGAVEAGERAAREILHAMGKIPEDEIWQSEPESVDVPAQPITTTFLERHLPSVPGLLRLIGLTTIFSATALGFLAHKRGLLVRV
The settings on record: ref Roche data on file, cited from earlier work; for Brain MAO-B inhibition: young healthy subjects.

Where two headings read alike, the source gives them in different places.

As for `CC(=O)N[C@H]1CC(=O)N(c2ccc(OCc3cccc(F)c3)cc2)C1` [sembragiline], the “Potency in inhibiting MAO-B relative to MAO-A” value in the series with MAO-A is listed as “approximately 600 fold”. Besides, the Terminal half-life in series [1] was 50 to 65 h. In addition, the “Pre-PET sembragiline plasma concentration at steady state, mean” value was 41.9 ng/mL in series [2] (AD patients, 1 mg q.d. for 14 days, N 3); 2.55 ng/mL in series [2] (AD patients, 5 mg loading day 1 then 0.1 mg q.d. Day 2–15, N 2); 7.06 ng/mL in series [2] (AD patients, 5 mg loading day 1 then 0.2 mg q.d. Day 2–7, N 3); 96.7 ng/mL in series [2] (AD patients, 5 mg q.d. for 6–9 days, N 2); 33.9 ng/mL in series [2] (EC subjects, 1 mg q.d. for 14 days, N 3); 3.29 ng/mL in series [2] (EC subjects, 5 mg loading day 1 then 0.2 mg q.d. Day 2–7, N 3). Further, the Brain penetration entry on brain MAO-B enzyme (healthy young men, PET imaging) is listed as “crosses the blood–brain barrier”. Also, the “Brain MAO-B inhibition” value on brain MAO-B enzyme (5 mg daily for 2–10 days, cortical regions) is given as 52–78%; at brain MAO-B enzyme (5 mg daily for 2–10 days, subcortical regions) it was 73–87%; on brain MAO-B enzyme (15 mg, cortical regions), 68–74%; at brain MAO-B enzyme (15 mg, subcortical regions) it was 83–86%.
